{"source": "PubChem BioAssay (NCI)", "experiment_in_all_cases": "NCI-60 cell line screen, 48 h", "key": {"[1]": {"test_system": "SF-268 CNS"}, "[2]": {"test_system": "MOLT-4 leukemia"}, "[3]": {"test_system": "RXF-631 renal"}, "[4]": {"test_system": "COLO 205 colon"}, "[5]": {"test_system": "SK-MEL-28 melanoma"}, "[6]": {"test_system": "XF 498 CNS"}, "[7]": {"test_system": "HOP-92 NSCLC"}, "[8]": {"test_system": "TK-10 renal"}, "[9]": {"test_system": "NCI-H23 lung"}, "[10]": {"test_system": "RXF 393 renal"}, "[11]": {"test_system": "A498 renal"}, "[12]": {"test_system": "786-0 renal"}, "[13]": {"test_system": "DMS 273 small cell lung"}, "[14]": {"test_system": "M14 melanoma"}, "[15]": {"test_system": "DMS 114 small cell lung"}, "[16]": {"test_system": "OVCAR-8 ovarian"}, "[17]": {"test_system": "SF-295 CNS"}, "[18]": {"test_system": "HOP-18 NSCLC"}, "[19]": {"test_system": "M19-MEL melanoma"}, "[20]": {"test_system": "LXFL 529 NSCLC"}, "[21]": {"test_system": "NCI-H460 lung"}, "[22]": {"test_system": "ACHN renal"}, "[23]": {"test_system": "IGROV1 ovarian"}, "[24]": {"test_system": "SF-539 CNS"}, "[25]": {"test_system": "UACC-62 melanoma"}, "[26]": {"test_system": "HCT-116 colon"}, "[27]": {"test_system": "LOX IMVI melanoma"}, "[28]": {"test_system": "SN12C renal"}, "[29]": {"test_system": "UO-31 renal"}, "[30]": {"test_system": "HT29 colon"}, "[31]": {"test_system": "SK-OV-3 ovarian"}, "[32]": {"test_system": "HCT-15 colon"}, "[33]": {"test_system": "KM20L2 colon"}, "[34]": {"test_system": "CAKI-1 renal"}, "[35]": {"test_system": "HOP-62 NSCLC"}, "[36]": {"test_system": "U251 CNS"}}, "note": "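Exposure lasted 48 hours, with cells grown in 96-well plates and compounds tested at five concentrations. TGI: concentration producing complete growth inhibition.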", "data": [{"smiles": "CCc1nc2ccccc2c(=O)n1/N=C(\\N=Nc1ccc(Cl)cc1)c1ccccc1Cl", "values": [{"measurement": "TGI", "setting": "[1]", "result": "> 100", "unit": "µM"}, {"measurement": "TGI", "setting": "[2]", "result": 96.4, "unit": "µM"}, {"measurement": "TGI", "setting": "[3]", "result": "> 100", "unit": "µM"}, {"measurement": "TGI", "setting": "[4]", "result": "> 100", "unit": "µM"}, {"measurement": "TGI", "setting": "[5]", "result": 80.4, "unit": "µM"}, {"measurement": "TGI", "setting": "[6]", "result": 71.6, "unit": "µM"}, {"measurement": "TGI", "setting": "[7]", "result": 64.9, "unit": "µM"}, {"measurement": "TGI", "setting": "[8]", "result": "> 100", "unit": "µM"}, {"measurement": "TGI", "setting": "[9]", "result": "> 100", "unit": "µM"}, {"measurement": "TGI", "setting": "[10]", "result": 72.5, "unit": "µM"}, {"measurement": "TGI", "setting": "[11]", "result": "> 100", "unit": "µM"}, {"measurement": "TGI", "setting": "[12]", "result": "> 100", "unit": "µM"}, {"measurement": "TGI", "setting": "[13]", "result": "> 100", "unit": "µM"}, {"measurement": "TGI", "setting": "[14]", "result": "> 100", "unit": "µM"}, {"measurement": "TGI", "setting": "[15]", "result": 74.2, "unit": "µM"}, {"measurement": "TGI", "setting": "[16]", "result": "> 100", "unit": "µM"}, {"measurement": "TGI", "setting": "[17]", "result": "> 100", "unit": "µM"}, {"measurement": "TGI", "setting": "[18]", "result": "> 100", "unit": "µM"}, {"measurement": "TGI", "setting": "[19]", "result": "> 100", "unit": "µM"}, {"measurement": "TGI", "setting": "[20]", "result": 85.3, "unit": "µM"}, {"measurement": "TGI", "setting": "[21]", "result": "> 100", "unit": "µM"}, {"measurement": "TGI", "setting": "[22]", "result": "> 100", "unit": "µM"}, {"measurement": "TGI", "setting": "[23]", "result": "> 100", "unit": "µM"}, {"measurement": "TGI", "setting": "[24]", "result": "> 100", "unit": "µM"}, {"measurement": "TGI", "setting": "[25]", "result": "> 100", "unit": "µM"}, {"measurement": "TGI", "setting": "[26]", "result": "> 100", "unit": "µM"}, {"measurement": "TGI", "setting": "[27]", "result": "> 100", "unit": "µM"}, {"measurement": "TGI", "setting": "[28]", "result": "> 100", "unit": "µM"}, {"measurement": "TGI", "setting": "[29]", "result": 69.9, "unit": "µM"}, {"measurement": "TGI", "setting": "[30]", "result": "> 100", "unit": "µM"}, {"measurement": "TGI", "setting": "[31]", "result": "> 100", "unit": "µM"}, {"measurement": "TGI", "setting": "[32]", "result": "> 100", "unit": "µM"}, {"measurement": "TGI", "setting": "[33]", "result": "> 100", "unit": "µM"}, {"measurement": "TGI", "setting": "[34]", "result": "> 100", "unit": "µM"}, {"measurement": "TGI", "setting": "[35]", "result": "> 100", "unit": "µM"}, {"measurement": "TGI", "setting": "[36]", "result": "> 100", "unit": "µM"}]}]}
